Source: paper PMC7271948, “A baculoviral system for the production of human β-glucocerebrosidase enables atomic resolution analysis” (Acta Crystallographica. Section D, Structural Biology, 2020)

What was measured:
[1] = biological target: T1, β-glucocerebrosidase (GBA) (Homo sapiens, UniProt P04062); experiment: X-ray crystal structure at […] Å, crystals soaked with 2F-DNPGlc; format: binding
T1 construct: gene GBA1
T1 sequence (P04062 40-536): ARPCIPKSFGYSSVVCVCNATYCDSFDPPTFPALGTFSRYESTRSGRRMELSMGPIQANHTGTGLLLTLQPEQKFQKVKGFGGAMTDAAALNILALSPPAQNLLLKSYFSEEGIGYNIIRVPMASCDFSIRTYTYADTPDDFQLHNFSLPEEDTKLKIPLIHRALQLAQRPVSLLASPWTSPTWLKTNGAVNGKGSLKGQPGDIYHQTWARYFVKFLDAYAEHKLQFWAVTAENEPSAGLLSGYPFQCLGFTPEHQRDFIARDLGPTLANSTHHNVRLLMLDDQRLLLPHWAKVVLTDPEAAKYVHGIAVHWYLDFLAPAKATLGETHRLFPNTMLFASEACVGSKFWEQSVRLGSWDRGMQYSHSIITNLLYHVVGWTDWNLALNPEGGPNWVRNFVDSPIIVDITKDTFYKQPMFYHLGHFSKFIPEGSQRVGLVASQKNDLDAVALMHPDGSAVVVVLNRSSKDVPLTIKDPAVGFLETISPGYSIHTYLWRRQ

[2] = biological target: T1, β-glucocerebrosidase (GBA); experiment: X-ray crystal structure at […] Å; IC50 against 4-MU-Glc hydrolysis at pH […]; format: biochemical

IC50 [2] [mM] | Compound | X-ray crystal structure at 1.41 Å, crystals soaked with 2F-DNPGlc [1]
 | O=[N+]([O-])c1ccc(O[C@@H]2O[C@H](CO)[C@@H](O)[C@H](O)[C@H]2F)c([N+](=O)[O-])c1 [2F-DNPGlc, 2,4-dinitrophenyl-2-deoxy-2-fluoro-β-D-glucopyranoside] | showing unambiguous electron density for covalent binding of the 2-deoxy-2-fluoroglucose moiety to the catalytic nucleophile
4.31 ± 0.42 | OCC(CO)(CO)NCCCNC(CO)(CO)CO [BTP, bis-Tris propane] | 
